Patent EP1588705A1, “Use of coumarin derivatives” (INTE:LIGAND Software-Entwicklungs und Consulting GmbH, priority 2004, dated 2005)
Where a name gives a salt, the structure may show the parent alone.

How the values were obtained:
acetylcholinesterase [1] = target: T1, acetylcholinesterase (Electrophorus electricus, UniProt O42275); assay: biochemical
Description: (§1) In both test systems, the enzyme (acetylcholinesterase, Sigma-Aldrich Chemie GmbH, Steinheim, Germany) hydrolyzes the substrate acetylthiocholine (acetylthiocholiniodid, Sigma-Aldrich Chemie GmbH, Steinheim, Germany) to produce thiocholine. This reacts with Ellman's reagent (5,5'-dithiobis-(2-nitrobenzoic acid), Sigma-Aldrich Chemie GmbH, Steinheim, Germany) resulting in 5-thio-2-nitrobenzoate and the yellow colored 2-nitrobenzoate-5-mercaptothiocholine. This latter was visually detected in the TLC test.
The self absorbance of all ingredients of the assay was corrected by subtracting the absorbance at time zero from the subsequent absorbance values. […] For all three substances the concentration dependence of their AChE inhibitory activity was determined. Percentage of the enzyme inhibition was calculated by comparing the rates for the sample to the blank (containing 1% DMSO) and analyzed with Student's t-test.

[2] = system: extracellular concentration of ACh in the nucleus accumbens; assay: in vivo extracellular ACh concentration, push-pull technique, i.c.v. injection; parameters: species or system Sprague-Dawley rats; conditions: 2 µmol i.c.v.; for extracellular concentration of ACh (relative value, means ± SEM): mean before drug = 1.0
Description: Surgery and push-pull technique: Sprague-Dawley rats (250-350 g) were anaesthetized with urethane 1,2 g/kg, i.p. The head was fixed in a stereotaxic frame and a push-pull cannula (outer tubing: o.d. 0.75 mm, i.d. 0.41 mm; inner tubing: o.d. 0.26 mm, i.d. 0.13 mm) was mounted on a microdrive. This was stereotaxically inserted through a hole in the skull into the nucleus accumbens (coordinates, mm from bregma: AP, +1.2; L, +2.5; V, -7.8; Paxinos & Watson, 1998). A second hole was drilled into the skull for the i.c.v. application of drugs (coordinates, mm from bregma: AP, -2,8; L, +1,5) The nucleus accumbens was superfused at 20µL/min with artificial cerebrospinal fluid (aCSF), pH 7.2. The CSF consisted of: NaCl,140; KCI, 3; CaCl2, 1.2; MgCl2 1; Na2HPO4, 1; NaH2PO4, 0.3; glucose 3.0 (mmol I^-1), neostigmine 1.0 (µmol/l^-1). After 1 h of the cannula insertion the samples were collected into tubes kept at -20° C in time periods of 10 min and then stored at -80° C until acetylcholine (Ach) was determined.
Using a motorized microsyringe connected to a stereotaxic microdrive, the tip was introduced with an angle of 60° through the drug application-hole into the ipsilateral ventricle (coordinates mm from bregma: AP, -0,9; L, +1,5; V, -3,8) via a cannula (o.d., 0,65; i.d., 0,38). The drug solutions were injected at 2µL/min. The control rats were injected with the vehicle (DMSO: EtOH 1:1).
Histology: At the end of the experiment the rat was killed with an overdose of urethane, the brain was removed and stored in buffered formaldehyde solution (7%). Serial coronal sections were cut at 50 µm intervals. Localisation of the push-pull cannula and i.c.v. microinjection was verified. Experiments with unsatisfactory localisation were discarded.
Determination of acetylcholine: (Ach): ACh content in the samples was determined by HPLC with a cation-exchanging analytical column and a post-column reactor followed by electrochemical detection (Damsma et al, 1997; Prast et al; 1998). The system consisted of a HPLC-pump (JASCO PU-1580, Jasco Corporation, Tokyo, Japan), a pulse dampener and an autosampler (AS-4000, Hitachi Ltd., Tokyo, Japan) with a 100-µL sample loop. […] The peroxide was electrochemically detected by a UniJet platin electrode (3mm) at +500 mV with an amperometric detector (BAS LC-4, Bioanalytical Systems, West Lafayette, IN, USA). […] ACh was quantified with external standards that were injected at the beginning and the end of the analysis.
Statistical significance of drug effects on the extracellular ACh concentration was calculated by Friedman's analysis of variance, followed by Wilcoxon's signed rank test for paired data (a p<0.08, * p<0.05, ** p<0,001) using the mean concentration rate before the administration of drugs as controls. […]

mice [3] = assay: T-maze continuous alternation; format: in vivo
Procedure: (§2) […] female, 3-month mice, weighing 20 - 27 g, were used in the present study. The animals were housed in groups of six to ten in cages (40 (L) x 25 (W) x 15 (H) cm) placed in a room at a constant temperature (22±1 °C), 12-light/ 12-dark cycle (07:00-19:00 h), with food and water ad libitum. Experiments were conducted between 09:00 and 16:00h.
(§3) Mice were anaesthetized with Pentobarbital sodium (60 mg/kg, i.p.) and placed in a stereotaxic frame. A guide cannula (gauge 25, o.d. 0.52 mm, i.d, 0.26 mm and 7 mm long) was stereotaxically implanted through a hole on the skull into the brain area 0.5 mm higher than the third cerebral ventricle (-0.1 mm posterior, 0.8 mm lateral to bregma, -2.2 mm ventral to the dura) (Franklin and Paxinos, 1997). Guide cannula was secured to the skull using two small screws and dental cement. The microinjector (Hamilton gauge 32, o.d. 0.24 mm and i.d. 0.11 mm, 7.5 mm long) protruded 0.5 mm from the tip of the guide cannula to reach the cerebral ventricle. Mice recovered for 5 days before any experimentation was done.
Scopolamine hydrobromide (Sigma, St. Louis, MO, U.S.A.) was dissolved in saline. SCT (Sigma-Aldrich Chemie GmbH, Steinheim, Germany) was dissolved in vehicle solution (DMSO:sterile water, 3:7). The animals were randomly divided into experimental groups and administered a cerebral ventricle injection of saline, scopolamine, SCT or scopolamine and SCT in a volume of 1 or 2 µl during 1 min. The injector was left in place an extra 1 min for drug diffusion after injection. These substances and vehicle were injected 15 min prior to the test.
Animals were randomly divided into […] experimental groups (6 mice per group) as follows: vehicle, scopolamine hybrobromide 20 µg (50 nmol) in 1µl ICV, SCT 2 µg (10 nmol) in 2µl ICV and scopolamine hybrobromide 20 µg plus SCT 2 µg ICV. All substances were injected 15 min before the test (T-maze and open field) or before the training trial T1 (object recognition test) through the 7.5 mm long injector connected with i.d. 0.28 mm polyethylene tubing to 5 µl Hamilton syringe. […]

acetylcholinesterase [4] = target: T1, acetylcholinesterase; assay: bioautographic TLC test for AChE inhibitory activity (Ellman's method); format: biochemical; parameters: purchased Sigma-Aldrich Chemie GmbH, Steinheim, Germany; conditions: spots of methanolic extract of S. carniolica rhizomes, Rf 0.6 (SCT) and 0.4 (SCN); false positives excluded
Procedure: The AChE inhibitory activity of the methanolic crude extract was qualitatively determined in a TLC assay using Ellman's method (Ellman, et al, 1961). Additionally a test to exclude false positive results was conducted described by Rhee et al, 2003. The used silica gel TLC plates 60F254 (0.2 mm thickness) were purchased from Merck (Darmstadt, Germany). […] Enzyme inhibitory activities were detected by spraying the substrate, dye and enzyme described by Rhee and coauthors (Rhee et al, 2001).
as §1

mice [5] = assay: open field locomotor behaviour; format: in vivo; conditions: 2 µg ICV, 30 min
Procedure: as §2
as §3, with “done. […]” for “done.”
The open field consisted of a transparent plastic box with white floor (41 x 41 x 41 cm) equipped with an automated activity monitoring system (True Scan, Coulbourn Instruments, Allentown, USA). […] The time spent in box and the overall distance travelled by the mice were monitored for 30 min. […]

mice [6] = assay: object recognition task; format: in vivo
Procedure: as §2, §3
Scopolamine hydrobromide (Sigma, St. Louis, MO, U.S.A.) was dissolved in saline. […]
Exploration was defined as follows: directing the nose toward the object at a distance of less than 0.5 cm and/or touching the object with the nose. […] The times spent by mice in exploring each object during T1 and T2 were recorded manually by using a stopwatch. […]

T1 sequence (O42275 24-633): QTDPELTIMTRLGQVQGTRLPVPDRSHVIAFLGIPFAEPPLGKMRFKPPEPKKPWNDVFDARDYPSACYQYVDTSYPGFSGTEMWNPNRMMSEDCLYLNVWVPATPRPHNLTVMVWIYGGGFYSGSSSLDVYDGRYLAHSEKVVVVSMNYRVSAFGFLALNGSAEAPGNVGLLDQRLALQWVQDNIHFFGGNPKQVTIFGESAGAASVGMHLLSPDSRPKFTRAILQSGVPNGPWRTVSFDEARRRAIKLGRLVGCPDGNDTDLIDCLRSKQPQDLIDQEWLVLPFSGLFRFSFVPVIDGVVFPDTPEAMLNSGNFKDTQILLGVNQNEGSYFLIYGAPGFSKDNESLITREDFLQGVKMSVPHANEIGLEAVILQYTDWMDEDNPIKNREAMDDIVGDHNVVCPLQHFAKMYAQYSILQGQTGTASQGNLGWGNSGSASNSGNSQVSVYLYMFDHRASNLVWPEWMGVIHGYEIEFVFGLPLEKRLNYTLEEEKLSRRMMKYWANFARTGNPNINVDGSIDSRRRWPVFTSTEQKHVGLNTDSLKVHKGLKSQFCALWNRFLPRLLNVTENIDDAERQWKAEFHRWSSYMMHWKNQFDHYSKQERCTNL

SMILES	change of inhibitory activity up to 90 min (acetylcholinesterase [1]; higher concentrations (250, 500, 1000 µM))	duration of inhibitory activity (acetylcholinesterase [1]; lower concentrations (62.5, 125 µM))	time until level of inhibitory activity is reached (acetylcholinesterase [1]; lower concentrations (62.5, 125 µM), after adding enzyme to substrate)	extracellular concentration of ACh (relative value, means ± SEM) ([2]; rat nucleus accumbens)	alternation rate (mice [3]; 2 µg ICV alone)	effect on scopolamine-induced decrease in alternation rate (mice [3]; SCT 2 µg ICV plus scopolamine 20 µg ICV)	AChE inhibitory activity of fluorescent TLC spot (acetylcholinesterase [4])	move distance, reduction compared to vehicle-treated controls (mice [5])	move time in the open field (mice [5]; vs vehicle-treated controls)	discrimination index, effect on scopolamine-induced impairment of object recognition (mice [6]; SCT 2 µg ICV plus scopolamine 20 µg ICV, 15 min before T1, mice)	effect on alternation rate (mice [3]; 20 µg ICV)	effect on learning in object recognition (discrimination novel vs familiar object in T2) (mice [6]; 20 µg ICV, mice)	inhibition of AChE, statistical significance (acetylcholinesterase [1]; 1000, 500 and 250 µM)	inhibition at 1000 µM (acetylcholinesterase [1]; read-out: AChE inhibitory activity)	time until inhibitory activities reach their maximum extent (acetylcholinesterase [1]; three highest concentrations)	change of inhibitory activity towards endpoint of measurement at 90 min (acetylcholinesterase [1]; three highest concentrations, after maximum in first 15 min)	ACh concentration after decline, of basal value ([2]; following the initial peak)	initial peak concentration of ACh, of basal value ([2]; rat nucleus accumbens)
COc1cc2ccc(=O)oc2cc1O [SCT, scopoletin]	slight, almost insignificant increase	at least 90 min	≤ 15 min	1,74 ± 0,24	63 ± 5%	abolished	positive	about 20%	only slightly decreased	significantly increased								
CN1[C@@H]2C[C@@H](OC(=O)[C@H](CO)c3ccccc3)C[C@H]1[C@@H]1O[C@@H]12 [Scopolamine, Scopolamine hydrobromide, reference compound]											pronounced decrease	drastic impairment of learning						
COc1cc2ccc(=O)oc2cc1O[C@@H]1O[C@H](CO)[C@@H](O)[C@H](O)[C@H]1O [SCN, scopolin]				3.18 ± 0.78			positive						significant	30.1%	≤ 15 min	slight decrease	about 200%	about 400%
